This is an account of results in paper PMC11440508, “Dually Labeled Neurotensin NTS1R Ligands for Probing Radiochemical and Fluorescence-Based Binding Assays” (Journal of Medicinal Chemistry, 2024).

Each structure is given as a SMILES string.

For orientation: koff means the first-order rate constant of dissociation. A word on the kon: it is the rate constant with which the complex forms.

This experiment has as its target NTS1R (Homo sapiens, UniProt P30989). The experiment can be described thus: Flow cytometric (FC) association and dissociation kinetics, suspended CHO-hNTS1R cells. The following applies: FC (suspension); for koff: 23 °C, read-out: koff [min^–1] (converted); for kon: calculated from kobs, koff and ligand concentration, read-out: kon [min^–1 nM^–1] (converted). It is filed as binding. How it is done: Flow cytometry-based NTS1R binding studies were performed with intact CHO-hNTS1R (all kind of experiments) and HT-29 cells (only saturation binding) using a BD FACSCanto II (Becton Dickinson, Heidelberg, Germany), equipped with an argon laser (488 nm) and a red diode laser (640 nm), and a BD High Throughput Sampler (HTS unit) for microtiter plates. Saturation and competition binding experiments were performed in triplicate in 96-well polypropylene plates (Brand 701330, Wertheim, Germany) using the HTS unit for sample injection. Association and dissociation experiments were performed in duplicate in 5 mL polypropylene tubes (VWR, Radnor) using the standard injection port of the flow cytometer. The following gain settings for forward and sideward scatter were applied: FSC, 0 V; SSC, 252 V. Fluorescence was recorded using the PE-channel (excitation: 488 nm, emission: 585 ± 21) nm with a PMT gain of 330–400 V. For measurements using the HTS unit, 45 μL of the sample were injected with a speed of 1.5 μL/s. For measurements, requiring the use of the standard injection port, the medium flow rate ([…]) was used. Measurements were stopped after 30 s (HTS unit) or after counting of 500–3000 gated events (standard injection port).
Cells were seeded in T75 culture flasks 3–4 days (CHO-hNTS1R cells) or 5–6 days (HT-29 cells) prior to the experiment. On the day of the experiment, cells were detached by trypsinization, suspended in DPBS1 and centrifuged at 200g at rt for 5 min. […]
5 mL polypropylene tubes were prefilled with 2000 μL of cell suspension and DMSO/H2O 2:8 v/v (20 μL) were added (determination of total binding). […] Specific binding data, obtained by subtracting triplicate mean values of unspecific binding from triplicate mean values of total binding, were plotted against the time and analyzed by a three-parameter equation describing an exponential rise to a maximum (one-phase association, Y0 constrained to zero, GraphPad Prism 5) to yield the observed association rate constant kobs. […]
5 mL polypropylene tubes were prefilled with 2000 μL of cell suspension. […] After different periods of time (1–240 min), sample aliquots were measured by placing the tube in the injection port of the flow cytometer. Specific binding data, obtained by subtracting triplicate mean values of unspecific binding from triplicate mean values of total binding, were plotted against the time and analyzed by a three-parameter equation describing an incomplete monophasic exponential decline (one phase decay, GraphPad Prism 5) to obtain koff values. […]
The kon and Kd(kin) values were calculated as described for high-content imaging binding experiments.

NTS1R, sequence (P30989 whole entry): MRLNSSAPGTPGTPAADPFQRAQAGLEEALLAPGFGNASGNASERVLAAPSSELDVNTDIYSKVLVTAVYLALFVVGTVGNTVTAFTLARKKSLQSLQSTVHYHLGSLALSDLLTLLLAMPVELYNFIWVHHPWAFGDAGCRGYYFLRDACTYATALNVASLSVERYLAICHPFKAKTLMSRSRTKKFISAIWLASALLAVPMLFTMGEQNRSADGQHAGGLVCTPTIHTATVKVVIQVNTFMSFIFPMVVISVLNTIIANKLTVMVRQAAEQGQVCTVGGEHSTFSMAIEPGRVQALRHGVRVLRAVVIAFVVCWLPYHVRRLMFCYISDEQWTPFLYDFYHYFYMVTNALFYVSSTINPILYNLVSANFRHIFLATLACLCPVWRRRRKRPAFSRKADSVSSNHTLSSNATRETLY

Turning to `CCC(=O)NCCCCNC(=O)N=C(N)NCCC[C@H](NC(=O)[C@@H]1CCCN1C(=O)[C@@H](NC(=O)CCc1cn(CCCNC(=O)c2ccc(-c3c4ccc(=[N+](C)C)cc-4oc4cc(N(C)C)ccc34)c(C(=O)[O-])c2)nn1)C1CCNCC1)C(=O)N[C@@H](CCCNC(=N)N)C(=O)N1CCC[C@H]1C(=O)N[C@@H](Cc1ccc(O)cc1)C(=O)N[C@H](C(=O)N[C@@H](CC(C)C)C(=O)O)[C@@H](C)CC` [Compound 13, N^α-(3-(1-N-((1-Carboxylato-2-(6-(dimethylamino)-3-(dimethyliminio)-3H-xanthen-9-yl)phen-5-yl)1-oxomethyl)aminoprop-3-yl-1H-1,2,3-triazol-4-yl)propanoyl)-2-(piperidin-4-yl)-Gly-Pro-N^ω-[(4-(N-propanoyl)aminobutyl)aminocarbonyl]Arg-Arg-Pro-Tyr-Ile-Leu Tris(hydrotrifluoroacetate)], the koff is 0.000333 s⁻¹ and the kon is 8e+06 M⁻¹ s⁻¹.

Regarding `CCC(=O)NCCCCNC(=O)NC(=N)NCCC[C@H](NC(=O)[C@@H]1CCCN1C(=O)[C@@H](NC(=O)CCc1cn(CCCNC(=O)CCC#Cc2ccc3c(c2)C(C)(C)C2=C4C=C5C6=[N+](CCC5OC4CCN23)c2ccc(S(=O)(=O)[O-])cc2C6(C)C)nn1)C1CCNCC1)C(=O)N[C@@H](CCCNC(=N)N)C(=O)N1CCC[C@H]1C(=O)N[C@H](C(=O)N[C@H](C(=O)N[C@@H](CC(C)C)C(=O)O)[C@@H](C)CC)C(C)(C)c1ccc(O)cc1` (stereo partly drawn) [Compound 18, N^α-(3-(N-(1-(8-Sulfonato-5,5,27,27-tetramethyl-16-oxa-20-aza-12-azoniaheptacyclo[15.11.0.03,15.04,12.06,11.020,28.021,26]octacosa-1(28),2,4(12),6(11),7,9,21(26),22,24-nonaen-24-yl)-5-oxopentyn-5-yl)-1-aminoprop-3-yl-1H-1,2,3-triazol-4-yl)propanoyl)-2-(piperidin-4-yl)-Gly-Pro-N^ω-[(4-(N-propanoyl)aminobutyl)aminocarbonyl]Arg-Arg-Pro-β,β-dimethyl-L-Tyr-Ile-Leu Tris(hydrotrifluoroacetate)], the koff is 0.0004 s⁻¹ and the kon was 2.67e+06 M⁻¹ s⁻¹.
